{"source": "patent US20080033045A1", "about": "“TREATMENT OF PSYCHIATRIC DISORDERS” (Myriad Genetics, Incorporated, priority 2006, published 2008)", "tested_on": "Alzheimer's disease patients", "experiment": "Clinical trial in Alzheimer's disease patients, analysis of psychiatric disorder events (MedDRA adverse events)", "type": "in vivo, human", "description": "A clinical trial with (R)-2-(2-fluoro-4-biphenylyl)propionic acid (USAN name of tarneflurbil) was conducted according to the method disclosed in U.S. patent application Ser. No. 10/889,971, filed Jul. 12, 2004, (US publication no. 20050042284) which is expressly incorporated herein by reference in its entirety. In this clinical trial, Alzheimer's disease patients were treated with placebo, 400 mg tarenflurbil twice daily, or 800 mg tarenflurbil twice daily for one year. Analysis of the psychiatric disorder events yielded the following results.", "key": {"[1]": {"conditions": "400 mg BID for one year, N = 40"}, "[2]": {"conditions": "800 mg BID for one year, N = 50"}}, "data": [{"compound": "C[C@@H](C(=O)O)c1ccc(-c2ccccc2)c(F)c1", "note": "[tarenflurbil, (R)-2-(2-fluoro-4-biphenylyl)propionic acid]", "values": [{"measurement": "Abnormal behaviour, number", "setting": "[1]", "result": 0}, {"measurement": "Abnormal dreams, number", "setting": "[1]", "result": 0}, {"measurement": "Aggression, number", "setting": "[1]", "result": 0}, {"measurement": "Agitation, number", "setting": "[1]", "result": 2}, {"measurement": "Agitation, percent of N", "setting": "[1]", "result": "(5%)"}, {"measurement": "Anger, number", "setting": "[1]", "result": 1}, {"measurement": "Anger, percent of N", "setting": "[1]", "result": "(2.5%)"}, {"measurement": "Anxiety, number", "setting": "[1]", "result": 2}, {"measurement": "Anxiety, percent of N", "setting": "[1]", "result": "(5%)"}, {"measurement": "Apathy, number", "setting": "[1]", "result": 0}, {"measurement": "Confusional state, number", "setting": "[1]", "result": 4}, {"measurement": "Confusional state, percent of N", "setting": "[1]", "result": "(10%)"}, {"measurement": "Delusion, number", "setting": "[1]", "result": 1}, {"measurement": "Delusion, percent of N", "setting": "[1]", "result": "(2.5%)"}, {"measurement": "Depression, number", "setting": "[1]", "result": 1}, {"measurement": "Depression, percent of N", "setting": "[1]", "result": "(2.5%)"}, {"measurement": "Hallucination, number", "setting": "[1]", "result": 0}, {"measurement": "Hallucination, visual, number", "setting": "[1]", "result": 1}, {"measurement": "Hallucination, visual, percent of N", "setting": "[1]", "result": "(2.5%)"}, {"measurement": "Insomnia, number", "setting": "[1]", "result": 0}, {"measurement": "Libi do increased, number", "setting": "[1]", "result": 1}, {"measurement": "Libi do increased, percent of N", "setting": "[1]", "result": "(2.5%)"}, {"measurement": "Mood altered, number", "setting": "[1]", "result": 0}, {"measurement": "Mood swings, number", "setting": "[1]", "result": 1}, {"measurement": "Mood swings, percent of N", "setting": "[1]", "result": "(2.5%)"}, {"measurement": "Nightmare, number", "setting": "[1]", "result": 0}, {"measurement": "Number of Patients With at Least One Adverse Event (Psychiatric Disorder)", "setting": "[1]", "result": 12}, {"measurement": "Paranoia, number", "setting": "[1]", "result": 1}, {"measurement": "Paranoia, percent of N", "setting": "[1]", "result": "(2.5%)"}, {"measurement": "Patients With at Least One Adverse Event (Psychiatric Disorder), percent of N", "setting": "[1]", "result": "(30%)"}, {"measurement": "Psychotic disorder, number", "setting": "[1]", "result": 1}, {"measurement": "Psychotic disorder, percent of N", "setting": "[1]", "result": "(2.5%)"}, {"measurement": "Sleep disorder, number", "setting": "[1]", "result": 1}, {"measurement": "Sleep disorder, percent of N", "setting": "[1]", "result": "(2.5%)"}, {"measurement": "Total Number of Adverse Events (Psychiatric Disorders, MedDRA)", "setting": "[1]", "result": 17}, {"measurement": "Abnormal behaviour, number", "setting": "[2]", "result": 0}, {"measurement": "Abnormal dreams, number", "setting": "[2]", "result": 0}, {"measurement": "Aggression, number", "setting": "[2]", "result": 0}, {"measurement": "Agitation, number", "setting": "[2]", "result": 1}, {"measurement": "Agitation, percent of N", "setting": "[2]", "result": "(2%)"}, {"measurement": "Anger, number", "setting": "[2]", "result": 0}, {"measurement": "Anxiety, number", "setting": "[2]", "result": 2}, {"measurement": "Anxiety, percent of N", "setting": "[2]", "result": "(4%)"}, {"measurement": "Apathy, number", "setting": "[2]", "result": 0}, {"measurement": "Confusional state, number", "setting": "[2]", "result": 0}, {"measurement": "Delusion, number", "setting": "[2]", "result": 0}, {"measurement": "Depression, number", "setting": "[2]", "result": 4}, {"measurement": "Depression, percent of N", "setting": "[2]", "result": "(8%)"}, {"measurement": "Hallucination, number", "setting": "[2]", "result": 0}, {"measurement": "Hallucination, visual, number", "setting": "[2]", "result": 0}, {"measurement": "Insomnia, number", "setting": "[2]", "result": 1}, {"measurement": "Insomnia, percent of N", "setting": "[2]", "result": "(2%)"}, {"measurement": "Libi do increased, number", "setting": "[2]", "result": 0}, {"measurement": "Mood altered, number", "setting": "[2]", "result": 1}, {"measurement": "Mood altered, percent of N", "setting": "[2]", "result": "(2%)"}, {"measurement": "Mood swings, number", "setting": "[2]", "result": 0}, {"measurement": "Nightmare, number", "setting": "[2]", "result": 1}, {"measurement": "Nightmare, percent of N", "setting": "[2]", "result": "(2%)"}, {"measurement": "Number of Patients With at Least One Adverse Event (Psychiatric Disorder)", "setting": "[2]", "result": 7}, {"measurement": "Paranoia, number", "setting": "[2]", "result": 0}, {"measurement": "Patients With at Least One Adverse Event (Psychiatric Disorder), percent of N", "setting": "[2]", "result": "(14%)"}, {"measurement": "Psychotic disorder, number", "setting": "[2]", "result": 0}, {"measurement": "Sleep disorder, number", "setting": "[2]", "result": 0}, {"measurement": "Total Number of Adverse Events (Psychiatric Disorders, MedDRA)", "setting": "[2]", "result": 10}, {"measurement": "number of psychiatric events (incidence)", "setting": "treatment group, statistical analysis, p=0.02", "result": "reduce the incidence of psychiatric events"}, {"measurement": "time to progression to psychiatric events (onset)", "setting": "treatment group, statistical analysis, p=0011", "result": "delay the onset of"}]}]}
